Experimental data reported in US20220249462A1, “COMPOSITIONS AND METHODS USING TRIGONELLINE TO PRODUCE INTRACELLULAR NAD+” (SOCIETE DES PRODUITS NESTLE S.A., priority 2019, published 2022).

Key:
[1] = test system: Human Skeletal Muscle Myotubes (HSMM); test: Colorimetric NAD+ quantification in human primary myoblasts differentiated to myotubes, 16 h treatment; format: cell-based; settings: different doses
Description: After one day, the differentiation is induced by a medium change for 4 days. Cells were treated with synthetic trigonelline monohydrate (FIG. 4A) or with Fenugreek seed extract enriched in trigonelline containing 40.45% trigonelline (FIG. 4B) for 16 h at difference doses. NAD+ was measured using colorimetric NAD+ quantification assay (Biovision NAD+/NADH Quantitation Colorimetric Kit #k337-100).

C57BL/6JRj male mice = test: Liver NAD+ in mice after oral gavage; format: in vivo; settings: equimolar of 300 mg/kg trigonelline, 120 minutes
Description: 10 weeks C57BL/6JRj male mice received trigonelline (sigma #T5509) or fenugreek seed extract enriched in trigonelline (40.45% trigonelline) by oral gavage (equimolar of 300 mg/kg trigonelline, n=8/group). After 120 minutes treatment, the liver was harvested and flash frozen in liquid nitrogen. NAD+ was measured in liver using an enzymatic method adapted from Dall, M., et al., Mol Cell Endocrinol, 2018. 473:p. 245-256.

[2] = test system: Human Skeletal Muscle Myotubes (HSMM); settings: 6 h
Description: Human primary myoblasts from two different donors were seeded in 6 well plates at a density of 200′000 cells per well in skeletal muscle growth medium (SKM-M, AMSbio). After one day, the differentiation was induced by a medium change for 4 days using differentiation culture medium (Gibco No. 31330-028). Cells were treated with isotopically labelled trigonelline (13C carbonyl; 32H on methyl) for 6 h.
Cell extracts were separated on a Vanquish UHPLC+focused LC system (Thermo Scientific) with a hydrophilic liquid chromatography (HILIC) iHILIC-Fusion(P) column (Hilicon) carrying the dimensions 150×2.1 mm, 5 μm and a guard column (iHILIC-fusion(P), Hilicon) in front. The separation of metabolites was achieved by applying a linear solvent gradient in normal phase at 0.25 mL/min flow rate and 35° C. of temperature. As mobile phase, solvent A was water with 10 mM ammonium acetate and 0.04% (v/v) ammonium hydroxide, pH ˜9.3, and solvent B was acetonitrile.
The eluting metabolites were analyzed with an Orbitrap Fusion Lumos mass spectrometer (Thermo Scientific) with a heated electrospray ionization (H-ESI) source in positive and negative mode at a resolution of 60,000 at m/z of 200. Instrument control and data analysis were conducted using Xcalibur (Thermo Scientific).

C. elegans [3] = settings: 1 mM, chronic exposure from Day 1 of adulthood, wild type N2
Description: Worm lifespan tests were performed using about 100 animals per condition and scored manually every other day. Trigonelline treatment and experimental measurements were started at Day 1 of wild type N2 worm adulthood, in a regimen of chronic exposure till experiments termination.

C. elegans [4] = settings: 1 mM
Description: C. elegans mobility test was performed using the Movement Tracker software (Mouchiroud, L. et al. Curr Protoc Neurosci 77, 8.37.1-8.37.21 (2016)). The experiments were repeated at least twice. Trigonelline treatment and experimental measurements were started at Day 1 of wild type N2 worm adulthood, in a regimen of chronic exposure till experiments termination.

C. elegans [5] = settings: 1 mM, day 8 and day 11 old worms
From the text: 45 to 60 worms per condition were manually scored for mobility after poking. Worms that were unable to respond to any repeated stimulation were scored as dead. […] Trigonelline treatment and experimental measurements were started at Day 1 of wild type N2 worm adulthood, in a regimen of chronic exposure til experiments termination.

[6] = test system: RW1596 (myo-3p::GFP) worms; settings: 1 mM trigonelline chloride, 11 day old worms
Description: RW1596 (myo-3p::GFP) worms were collected at Day 1 (young adults) and at Day 11 (aged animals) for muscle integrity assessment. Worms were immobilized with tetramisole and analyzed by confocal microscopy, to assess the muscle fibers morphology shown by GFP fluorescence imaging. Trigonelline treatment with 1 mM trigonelline chloride and experimental measurements were started at Day 1 of wild type N2 worm adulthood, in a regimen of chronic exposure till experiments termination.

C. elegans [7] = settings: 1 mM trigonelline chloride, day 8 old worms
Description: Absolute quantification of the mtDNA copy number in wild type N2 worms was performed by real-time PCR. Relative values for nduo-1, and act-1 were compared within each sample to generate a ratio representing the relative level of mitochondrial DNA per nuclear genome. The average of at least two technical repeats was used for each biological data point. Each experiment was performed on at least ten independent biological samples (individual worms). Trigonelline treatment with 1 mM trigonelline chloride and experimental measurements were started at Day 1 of wild type N2 worm adulthood, in a regimen of chronic exposure till experiments termination.

## C[n+]1cccc(C(=O)[O-])c1 [chemically synthesized trigonelline, trigonelline monohydrate]
[1]
  NAD+ content compared to the control: significant increase in NAD+ content
C57BL/6JRj male mice
  NAD+ content in the liver compared to the control: significant increase in NAD+ content in the liver

## C[n+]1cccc(C(=O)[O-])c1 [trigonelline (13C-carbonyl, C2H3), reference compound]
[2]; 500 μM labelled trigonelline, compared to NAD+ in baseline conditions, corrected for natural abundance
  [13C]-isotopic enrichment of NAD+ (% of 13C-enrichment): 45%

## C[n+]1cccc(C(=O)O)c1 [trigonelline chloride]
C. elegans [3]
  Increase of lifespan (survival curve): 21%
C. elegans [4]; advanced aging phase
  Distance travelled during spontaneous mobility assay compared to control: significantly increased
C. elegans [4]; from day 1 adulthood
  Mean speed during spontaneous mobility assay compared to the control: increased the mean speed
C. elegans [5]
  Stimulated mobility score (percentage of worms responsive to a physical stimulus): more responsive to a physical stimulus

## C[n+]1cccc(C(=O)[O-])c1 [trigonelline, 1-methylpyridin-1-ium-3-carboxylate]
[2]; 500 μM, human myotubes from 2 donors, LC-MS
  NAD+ levels relative to control: enhancement of NAD+ levels
[6]
  Myofibrillar structure (GFP-tagged myosin morphology) compared to age matched control: improved more organized myofibrillar structure
C. elegans [7]
  Mitochondrial (nduo-1) relative to nuclear (act-1) DNA ratio compared to control: higher than in the control group
